Measured values: US20040260071A1, “Benzophene-linked crf and crf-like peptides for covalent labeling of corticotropin-releasing factor crf binding protein” (priority 2001, published 2004)
Values joined by “and” are separate entries in the source; they are usually repeats but may differ in a detail not shown here. Identical values can stand only once. Non-standard residues stand in square brackets, D forms with d. Residues, ends and D or L forms follow the SMILES beside them. No end group written: not given here. *: point of attachment. Benzoyl(4-benzoyl) = O=C(c1ccccc1)c1ccc(C(=O)*)cc1; Bpa = N[C@@H](Cc1ccc(C(=O)c2ccccc2)cc1)C(=O)O

Columns and labels:
rCRFBP [1] = biological target: T1, rCRFBP (Rattus norvegicus, UniProt P24388); test: Radioligand binding assay (charcoal precipitation, 3H-rUcn) for affinity to rCRFBP; settings: for Ki: mean ± S.E.M. of three independent experiments in duplicate, 3H-rUcn radioligand, Cheng-Prusoff, read-out: Inhibition constants (Kl)
T1 construct: made in house; host or cells: HEK 293 cells, stably transfected (pcDNA3); serum-free conditioned medium used directly
T1 sequence (P24388 25-322): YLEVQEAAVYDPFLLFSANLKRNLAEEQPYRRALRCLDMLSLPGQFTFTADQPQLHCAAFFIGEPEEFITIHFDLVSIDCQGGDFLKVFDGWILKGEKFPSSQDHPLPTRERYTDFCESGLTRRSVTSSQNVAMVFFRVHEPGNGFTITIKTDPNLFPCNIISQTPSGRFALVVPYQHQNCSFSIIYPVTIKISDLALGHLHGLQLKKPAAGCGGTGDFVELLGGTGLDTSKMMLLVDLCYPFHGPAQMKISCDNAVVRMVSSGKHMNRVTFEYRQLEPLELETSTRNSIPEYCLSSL
Experimental: The peptides were tested for their affinity to rCRFBP on the basis of a charcoal precipitation assay utilizing tritiated Ucn as radioligand (21). […] Siliconized microreaction vials (Sigma, Deisenhofen, Germany) were used to prevent binding of peptides to plastic surfaces. Competition binding experiments were performed by employing 0 to maximally 3 μM unlabeled competitor. The applied concentration range depended on the expected order of magnitude of ligand affinity. After 2 hours of incubation at room temperature, unbound ligand was precipitated by the addition of 100 μl precipitation buffer (binding buffer+10% w/v activated charcoal+2% BSA). The suspension was mixed vigorously and the adsorption was allowed to proceed for 2 min at room temperature. After centrifugation for 2 min at 12000×g, 200 μl supernatant was removed, mixed with 2 ml Ecolume liquid scintillation cocktail (ICN Biomedicals, Irvine, Calif.), and counted for 3 min in a Wallac 1209 Rackbeta liquid scintillation counter (Wallac, Turku, Finland). All assays were performed in duplicate and repeated at least three times. Binding data were analyzed using the Prism computer program (GraphPad Software, San Diego, Calif.).

rCRFBP [2] = biological target: T1, rCRFBP; test: Photoaffinity labeling of rCRFBP (photoadduct formation); format: biochemical; settings: for Photoadduct yield determined by immunoblotting: comparison of photoprobes (FIG. 6)
Experimental: 1 nM CRFBP was incubated with a 100 fold molar excess of photoactivatable ligand for 1 hour at room temperature. […] The irradiation was carried out with UV-light of wavelenghts greater than 300 nm in an ice bath.
rCRFBP (approximate final concentration 10 nM) was incubated with 100 nM of the photoactivatable peptide according to the conditions of the radioligand binding assay. Medium from stably transfected HEK 293 cells was directly used as source for rCRFBP. Irradiation of the benzophenone photoprobes was carried out at 0° C. with a self-constructed photoreaction device incorporating a 400 W halogen metal vapor lamp (Ultratech, Osram, Germany). This lamp provides a wide spectrum of emission at wavelenghts above 250 nm with a maximum at 370 nm which is consistent with the activation wavelenght (350-360 nm) for benzophenone derivatives (13). Protein-damaging wavelenghts below 300 nm were avoided by the use of a filter screen consisting of the optical glass type B 270 (Schoft, Mainz, Germany). The aryldiazirine photoprobe was irradiated as described (14) using a commercially available stratalinker device.
Unless otherwise stated, activation was carried out for 30 min at 0° C. with an Ultratech 400 W halogen metal vapor lamp (Osram). Protein-damaging wavelenghts below 300 nm were filtered with a B270 glass screen (Schott). Unlabeled rCRFBP and the photoadduct were co-purified by adsorption to a nickel-chelate matrix under denaturing conditions. The eluted fraction was analyzed by SDS PAGE (45) (9% polyacrylamide gels) and by reversed-phase HPLC coupled on-line to mass spectrometry (HPLC-MS) on a Vydac C4 column (0.3×150 mm; LC Packings).

CRFBP = biological target: T2, CRFBP (Rattus norvegicus, UniProt P24388); settings: relative to Svg; cited from earlier work
T2 sequence (P24388 25-322): T1 sequence (P24388 25-322)

rCRFBP [3] = biological target: T1, rCRFBP; test: Scintillation proximity assay with [125I-Tyr0]h/rCRF as radioligand, binding to rCRFBP; settings: for IC50: Example 8, 95% CI given alongside, read-out: IC50 (affinity to rCRFBP)
Text: Recombinant rCRFBP containing a C-terminal His-tag was produced in human embryonic kidney (HEK) 293 cells under serum-free conditions (45).

[4] = photoprobe pBB-rUcn, competitor in ten-fold excess (FIG. 5)
[5] = photoprobes 100 nM, competitor 1 μM (FIG. 12a)

With `CC[C@H](C)[C@H](NC(=O)[C@H](CO)NC(=O)[C@H](CC(C)C)NC(=O)[C@@H]1CCCN1C(=O)[C@@H]1CCCN1C(=O)[C@H](CC(=O)O)NC(=O)[C@@H](N)CC(=O)O)C(=O)N[C@@H](CC(=O)O)C(=O)N[C@@H](CC(C)C)C(=O)N[C@H](C(=O)N[C@@H](Cc1ccc(C(=O)c2ccccc2)cc1)C(=O)N[C@@H](Cc1c[nH]cn1)C(=O)N[C@@H](CC(C)C)C(=O)N[C@@H](CC(C)C)C(=O)N[C@@H](CCCNC(=N)N)C(=O)N[C@H](C(=O)N[C@@H](CC(C)C)C(=O)N[C@@H](CC(C)C)C(=O)N[C@@H](CCC(=O)O)C(=O)N[C@@H](CC(C)C)C(=O)N[C@@H](C)C(=O)N[C@@H](CCCNC(=N)N)C(=O)N[C@H](C(=O)N[C@@H](CCC(N)=O)C(=O)N[C@@H](CO)C(=O)N[C@@H](CCC(N)=O)C(=O)N[C@@H](CCCNC(=N)N)C(=O)N[C@@H](CCC(=O)O)C(=O)N[C@@H](CCCNC(=N)N)C(=O)N[C@@H](C)C(=O)N[C@@H](CCC(=O)O)C(=O)N[C@@H](CCC(N)=O)C(=O)N[C@@H](CC(N)=O)C(=O)N[C@@H](CCCNC(=N)N)C(=O)N[C@H](C(=O)N[C@H](C(=O)N[C@@H](Cc1ccccc1)C(=O)N[C@@H](CC(=O)O)C(=O)N[C@@H](CO)C(=O)N[C@H](C(N)=O)C(C)C)[C@@H](C)CC)[C@@H](C)CC)[C@@H](C)O)[C@@H](C)O)[C@@H](C)O` [Compound 6, pBF^11-rUcn] (H-DDPPLSIDLT[Bpa]HLLRTLLELARTQSQRERAEQNRIIFDSV-NH2; N-terminus assumed) the Ki (rCRFBP [1]) was 400 ± 35 nM and the “Decrease of affinity to CRFBP relative to unmodified rUcn” value (rCRFBP [1]; modification within the central part of the peptide) was “three orders of magnitude”.
With ovine CRF [oCRF, reference compound] the “Suppression of photoadduct formation by competitor” value (“Suppression” for short) (rCRFBP [2]; [4]) was “not” and the “Suppression” value (rCRFBP [2]; [5]) was “not”.
In the case of [Ala^21]Svg, the “Increase of affinity to CRFBP by replacement of Glu^21 in Svg by Ala” value (CRFBP) is listed as “two orders of magnitude”.
In the case of pBB-h/rCRF [Compound 4], the “Photoadduct yield determined by immunoblotting” value (rCRFBP [2]) is reported as 50%.
In the case of `CC[C@H](C)[C@H](NC(=O)[C@H](CO)NC(=O)[C@H](CC(C)C)NC(=O)[C@@H]1CCCN1C(=O)[C@@H]1CCCN1C(=O)[C@H](CC(=O)O)NC(=O)[C@H](CC(=O)O)NC(=O)c1ccc(C(=O)c2ccccc2)cc1)C(=O)N[C@@H](CC(=O)O)C(=O)N[C@@H](CC(C)C)C(=O)N[C@H](C(=O)N[C@@H](Cc1ccccc1)C(=O)N[C@@H](Cc1c[nH]cn1)C(=O)N[C@@H](CC(C)C)C(=O)N[C@@H](CC(C)C)C(=O)N[C@@H](CCCNC(=N)N)C(=O)N[C@H](C(=O)N[C@@H](CC(C)C)C(=O)N[C@@H](CC(C)C)C(=O)N[C@@H](CCC(=O)O)C(=O)N[C@@H](CC(C)C)C(=O)N[C@@H](C)C(=O)N[C@@H](CCCNC(=N)N)C(=O)N[C@H](C(=O)N[C@@H](CCC(N)=O)C(=O)N[C@@H](CO)C(=O)N[C@@H](CCC(N)=O)C(=O)N[C@@H](CCCNC(=N)N)C(=O)N[C@@H](CCC(=O)O)C(=O)N[C@@H](CCCNC(=N)N)C(=O)N[C@@H](C)C(=O)N[C@@H](CCC(=O)O)C(=O)N[C@@H](CCC(N)=O)C(=O)N[C@@H](CC(N)=O)C(=O)N[C@@H](CCCNC(=N)N)C(=O)N[C@H](C(=O)N[C@H](C(=O)N[C@@H](Cc1ccccc1)C(=O)N[C@@H](CC(=O)O)C(=O)N[C@@H](CO)C(=O)N[C@H](C(N)=O)C(C)C)[C@@H](C)CC)[C@@H](C)CC)[C@@H](C)O)[C@@H](C)O)[C@@H](C)O` [Compound 2, pBB-rUcn], the Ki (rCRFBP [1]) is reported as < 1 nM and 0.99 nM, the “Photoadduct yield by integration of the UV trace” value (rCRFBP [2]; HPLC of affinity purified photoreaction products (FIG. 8)) is reported as 60% and the Maximal photoadduct yield (rCRFBP [2]; Western blot densitometry, 30 min irradiation with B 270 filter screen (FIG. 4C)) is reported as “up to 50%”. The “Photoadduct yield determined by immunoblotting” value (rCRFBP [2]) was 50% and the “Photoadduct yield by SDS PAGE silver staining” value (rCRFBP [2]; preparative scale, nickel-affinity purified (FIG. 7)) was 50%.
With pBB-h/rCRF^6-33 [Compound 10] the “Photoadduct yield at different time points of irradiation” value (rCRFBP [2]; immunodetection, densitometry (FIG. 12c)) was ≤ 65%.
For `CC[C@H](C)[C@H](NC(=O)[C@H](CO)NC(=O)[C@H](CC(C)C)NC(=O)c1ccc(C(=O)c2ccccc2)cc1)C(=O)N[C@@H](CC(=O)O)C(=O)N[C@@H](CC(C)C)C(=O)N[C@H](C(=O)N[C@@H](Cc1ccccc1)C(=O)N[C@@H](Cc1c[nH]cn1)C(=O)N[C@@H](CC(C)C)C(=O)N[C@@H](CC(C)C)C(=O)N[C@@H](CCCNC(=N)N)C(=O)N[C@H](C(=O)N[C@@H](CC(C)C)C(=O)N[C@@H](CC(C)C)C(=O)N[C@@H](CCC(=O)O)C(=O)N[C@@H](CC(C)C)C(=O)N[C@@H](C)C(=O)N[C@@H](CCCNC(=N)N)C(=O)N[C@H](C(=O)N[C@@H](CCC(N)=O)C(=O)N[C@@H](CO)C(=O)N[C@@H](CCC(N)=O)C(=O)N[C@@H](CCCNC(=N)N)C(=O)N[C@@H](CCC(=O)O)C(=O)N[C@@H](CCCNC(=N)N)C(=O)N[C@@H](C)C(=O)N[C@@H](CCC(=O)O)C(=O)N[C@@H](CCC(N)=O)C(=O)O)[C@@H](C)O)[C@@H](C)O)[C@@H](C)O` [Compound 8, pBB-rUcn^5-32] ({Benzoyl(4-benzoyl)}-LSIDLTFHLLRTLLELARTQSQRERAEQ-OH), the Ki (rCRFBP [1]) was 37 ± 3.5 nM.
`CC[C@H](C)[C@H](N)C(=O)N[C@@H](CO)C(=O)N[C@@H](CC(C)C)C(=O)N[C@@H](CC(=O)O)C(=O)N[C@@H](CC(C)C)C(=O)N[C@H](C(=O)N[C@@H](Cc1ccccc1)C(=O)N[C@@H](Cc1c[nH]cn1)C(=O)N[C@@H](CC(C)C)C(=O)N[C@@H](CC(C)C)C(=O)N[C@@H](CCCNC(=N)N)C(=O)N[C@@H](CCC(=O)O)C(=O)N[C@H](C(=O)N[C@@H](CC(C)C)C(=O)N[C@@H](CCC(=O)O)C(=O)N[C@@H](CCSC)C(=O)N[C@@H](C)C(=O)N[C@@H](CCCNC(=N)N)C(=O)N[C@@H](C)C(=O)N[C@@H](CCC(=O)O)C(=O)N[C@@H](CCC(N)=O)C(=O)N[C@@H](CC(C)C)C(=O)N[C@@H](C)C(=O)N[C@@H](CCC(N)=O)C(=O)N[C@@H](CCC(N)=O)C(=O)N[C@@H](C)C(=O)N[C@@H](Cc1ccc(C(=O)c2ccccc2)cc1)C(=O)N[C@@H](CO)C(=O)O)C(C)C)[C@@H](C)O` [Compound 14, [pBPhe^32]h/rCRF^6-33] (H-ISLDLTFHLLREVLEMARAEQLAQQA[Bpa]S-OH; N-terminus assumed) showed an IC50 (rCRFBP [3]) of 2.1 nM.
With rUcn [Compound 1, reference compound] the “Suppression” value (rCRFBP [2]; [4]) was “suppressed”.
In the case of `CC[C@H](C)[C@H](NC(=O)c1ccc(C(=O)c2ccccc2)cc1)C(=O)N[C@@H](CO)C(=O)N[C@@H](CC(C)C)C(=O)N[C@@H](CC(=O)O)C(=O)N[C@@H](CC(C)C)C(=O)N[C@H](C(=O)N[C@@H](Cc1ccccc1)C(=O)N[C@@H](Cc1c[nH]cn1)C(=O)N[C@@H](CC(C)C)C(=O)N[C@@H](CC(C)C)C(=O)N[C@@H](CCCNC(=N)N)C(=O)N[C@@H](CCC(=O)O)C(=O)N[C@H](C(=O)N[C@@H](CC(C)C)C(=O)N[C@@H](CCC(=O)O)C(=O)N[C@@H](CCSC)C(=O)N[C@@H](C)C(=O)N[C@@H](CCCNC(=N)N)C(=O)N[C@@H](C)C(=O)N[C@@H](CCC(=O)O)C(=O)N[C@@H](CCC(N)=O)C(=O)N[C@@H](CC(C)C)C(=O)N[C@@H](C)C(=O)N[C@@H](CCC(N)=O)C(=O)N[C@@H](CCC(N)=O)C(=O)N[C@@H](C)C(=O)N[C@@H](Cc1ccc(C(=O)c2ccccc2)cc1)C(=O)N[C@@H](CO)C(=O)O)C(C)C)[C@@H](C)O` [Compound 15, [pBPhe^32] pBB-h/rCRF^6-33] ({Benzoyl(4-benzoyl)}-ISLDLTFHLLREVLEMARAEQLAQQA[Bpa]S-OH), the IC50 (rCRFBP [3]) is reported as 14 nM and the “Decrease of affinity compared to h/rCRF^6-33” value (rCRFBP [3]; bifunctional photoprobe) is reported as “decreased by a factor of seven”.
In the case of “H-ISLDLTFHLLREVLEMARAEQLAQQAHS-OH [Compound 9, h/rCRF^6-33, reference compound]”, the “Suppression” value (rCRFBP [2]; [5]) is reported as “completely suppressed”.
In the case of “LSIDLTFHLLRTLLELARTQSQRERAEQ-OH [Compound 7, rUcn^5-32, reference compound]”, the Ki (rCRFBP [1]) is reported as 1.1 ± 0.06 nM.
